Experimental data from ChEMBL document CHEMBL3286333, “Concise synthesis of C-1-cyano-iminosugars via a new Staudinger/aza Wittig/Strecker multicomponent reaction strategy” (Bioorg Med Chem Lett, 2014).

How the values were obtained:
[1] = biological target: T1, Lysosomal acid glucosylceramidase (Homo sapiens, UniProt P04062); assay: Inhibition of human lysosomal beta-glucocerebrosidase
T1 sequence (P04062 whole entry): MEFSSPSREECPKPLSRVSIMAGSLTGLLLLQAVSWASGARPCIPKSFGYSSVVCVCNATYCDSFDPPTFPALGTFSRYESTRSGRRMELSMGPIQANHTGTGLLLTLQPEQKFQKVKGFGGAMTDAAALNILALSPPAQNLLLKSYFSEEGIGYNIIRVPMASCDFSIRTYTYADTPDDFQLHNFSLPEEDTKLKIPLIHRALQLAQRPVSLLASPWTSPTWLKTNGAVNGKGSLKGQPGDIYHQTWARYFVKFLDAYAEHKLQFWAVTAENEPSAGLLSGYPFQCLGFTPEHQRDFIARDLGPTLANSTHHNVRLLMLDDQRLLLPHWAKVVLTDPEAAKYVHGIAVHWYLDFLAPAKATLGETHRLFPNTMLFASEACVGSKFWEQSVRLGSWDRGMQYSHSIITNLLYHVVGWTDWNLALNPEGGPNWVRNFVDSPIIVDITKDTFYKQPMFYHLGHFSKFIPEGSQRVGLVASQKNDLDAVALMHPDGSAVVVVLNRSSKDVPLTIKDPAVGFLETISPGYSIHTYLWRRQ

[2] = biological target: T1, Lysosomal acid glucosylceramidase; assay: Inhibition of human lysosomal beta-glucocerebrosidase using 2,4-dinitrophenyl-beta-D-glucopyranoside as substrate by UV spectrophotometric analysis

Ki [1] [µM] | Ki [2] [µM] | Compound
0.001 |  | O[C@@H]1[C@@H](O)[C@@H](CCCCCOCC23CC4CC(CC(C4)C2)C3)NC[C@H]1O
 | 34 | N#C[C@H]1NC[C@@H](O)[C@H](O)[C@H]1O
 | 0.0075 | CN(C)c1cccc2c(S(=O)(=O)NC[C@H]3NC[C@@H](O)[C@H](O)[C@H]3O)cccc12
 | 716 | N#C[C@H]1N[C@H](CO)[C@@H](O)[C@H](O)[C@H]1O
